Key:
Format in all cases: functional
[1] = test system: A549; assay: Cytotoxicity against human A549/ATCC cells assessed as cell growth at 10 uM after 48 hrs by sulforhodamine B assay relative to control; details: A549, 48 h, read-out: Activity
[2] = test system: MDA-MB-435; assay: Cytotoxicity against human MDA-MB-435 cells assessed as cell growth at 100 uM after 48 hrs by sulforhodamine B assay relative to control; details: MDA-MB-435, 48 h, read-out: Activity
[3] = test system: Malme-3M; assay: Cytotoxicity against human MALME-3M cells assessed as cell growth at 0.1 uM after 48 hrs by sulforhodamine B assay relative to control; details: read-out: Activity
[4] = test system: NCI/ADR-RES; assay: Cytotoxicity against human NCI/ADR-RES cells assessed as cell growth at 0.01 uM after 48 hrs by sulforhodamine B assay relative to control; details: read-out: Activity
[5] = test system: HT-29; assay: Cytotoxicity against human HT-29 cells assessed as cell growth at 100 uM after 48 hrs by sulforhodamine B assay relative to control; details: HT-29, 48 h, read-out: Activity
[6] = test system: MDA-MB-468; assay: Cytotoxicity against human MDA-MB-468 cells assessed as cell growth at 1 uM after 48 hrs by sulforhodamine B assay relative to control; details: MDA-MB-468, 48 h, read-out: Activity
[7] = test system: ACHN; assay: Cytotoxicity against human ACHN cells assessed as cell growth at 100 uM after 48 hrs by sulforhodamine B assay relative to control; details: read-out: Activity
[8] = test system: KM12; assay: Cytotoxicity against human KM12 cells assessed as growth inhibition after 48 hrs by sulforhodamine B assay; details: KM12, 48 h
[9] = test system: UACC-257; assay: Cytotoxicity against human UACC257 cells assessed as cell growth at 1 uM after 48 hrs by sulforhodamine B assay relative to control; details: UACC-257, 48 h, read-out: Activity
[10] = test system: UO-31; assay: Cytotoxicity against human UO31 cells assessed as cell growth at 0.01 uM after 48 hrs by sulforhodamine B assay relative to control; details: UO-31, 48 h, read-out: Activity
[11] = test system: ACHN; assay: Cytotoxicity against human ACHN cells assessed as growth inhibition after 48 hrs by sulforhodamine B assay
[12] = test system: SW-620; assay: Cytotoxicity against human SW620 cells assessed as cell growth at 100 uM after 48 hrs by sulforhodamine B assay relative to control; details: SW-620, 48 h, read-out: Activity
[13] = test system: NCI-H460; assay: Cytotoxicity against human NCI-H460 cells assessed as cell growth at 0.01 uM after 48 hrs by sulforhodamine B assay relative to control; details: NCI-H460, 48 h, read-out: Activity
[14] = test system: MCF7; assay: Cytotoxicity against human MCF7 cells assessed as cell growth at 10 uM after 48 hrs by sulforhodamine B assay relative to control; details: MCF7, 48 h, read-out: Activity
[15] = test system: RXF 393; assay: Cytotoxicity against human RXF393 cells assessed as cell growth at 0.01 uM after 48 hrs by sulforhodamine B assay relative to control; details: RXF 393, 48 h, read-out: Activity
[16] = test system: SN12C; assay: Cytotoxicity against human SN12C cells assessed as growth inhibition after 48 hrs by sulforhodamine B assay
[17] = test system: 786-0; assay: Cytotoxicity against human 786-0 cells assessed as cell growth at 100 uM after 48 hrs by sulforhodamine B assay relative to control; details: 786-0, 48 h, read-out: Activity
[18] = test system: A498; assay: Cytotoxicity against human A498 cells assessed as cell growth at 0.1 uM after 48 hrs by sulforhodamine B assay relative to control; details: A498, 48 h, read-out: Activity
[19] = test system: SR; assay: Cytotoxicity against human SR cells assessed as cell growth at 0.01 uM after 48 hrs by sulforhodamine B assay relative to control; details: read-out: Activity
[20] = test system: CCRF-CEM; assay: Cytotoxicity against human CCRF-CEM cells assessed as cell growth at 100 uM after 48 hrs by sulforhodamine B assay relative to control; details: read-out: Activity
[21] = test system: UACC-62; assay: Cytotoxicity against human UACC62 cells assessed as cell growth at 1 uM after 48 hrs by sulforhodamine B assay relative to control; details: UACC-62, 48 h, read-out: Activity
[22] = test system: BT-549; assay: Cytotoxicity against human BT549 cells assessed as cell growth at 0.1 uM after 48 hrs by sulforhodamine B assay relative to control; details: BT-549, 48 h, read-out: Activity
[23] = test system: T47D; assay: Cytotoxicity against human T47D cells assessed as growth inhibition after 48 hrs by sulforhodamine B assay
[24] = test system: Malme-3M; assay: Cytotoxicity against human MALME-3M cells assessed as cell growth at 1 uM after 48 hrs by sulforhodamine B assay relative to control; details: read-out: Activity
[25] = test system: SK-OV-3; assay: Cytotoxicity against human SKOV3 cells assessed as cell growth at 10 uM after 48 hrs by sulforhodamine B assay relative to control; details: SK-OV-3, 48 h, read-out: Activity
[26] = test system: SW-620; assay: Cytotoxicity against human SW620 cells assessed as cell growth at 10 uM after 48 hrs by sulforhodamine B assay relative to control; details: SW-620, 48 h, read-out: Activity
[27] = test system: SK-OV-3; assay: Cytotoxicity against human SKOV3 cells assessed as cell growth at 1 uM after 48 hrs by sulforhodamine B assay relative to control; details: SK-OV-3, 48 h, read-out: Activity
[28] = test system: RPMI-8226; assay: Cytotoxicity against human RPMI8226 cells assessed as cell growth at 10 uM after 48 hrs by sulforhodamine B assay relative to control; details: RPMI-8226, 48 h, read-out: Activity
[29] = test system: PC-3; assay: Cytotoxicity against human PC3 cells assessed as growth inhibition after 48 hrs by sulforhodamine B assay; details: PC-3, 48 h
[30] = test system: SW-620; assay: Cytotoxicity against human SW620 cells assessed as cell growth at 0.1 uM after 48 hrs by sulforhodamine B assay relative to control; details: SW-620, 48 h, read-out: Activity
[31] = test system: NCI/ADR-RES; assay: Cytotoxicity against human NCI/ADR-RES cells assessed as cell growth at 100 uM after 48 hrs by sulforhodamine B assay relative to control; details: read-out: Activity
[32] = test system: HL-60(TB); assay: Cytotoxicity against human HL-60(TB) cells assessed as growth inhibition after 48 hrs by sulforhodamine B assay; details: HL-60, 48 h
[33] = test system: NCI-H23; assay: Cytotoxicity against human NCI-H23 cells assessed as cell growth at 100 uM after 48 hrs by sulforhodamine B assay relative to control; details: NCI-H23, 48 h, read-out: Activity
[34] = test system: MCF7; assay: Cytotoxicity against human MCF7 cells assessed as growth inhibition after 48 hrs by sulforhodamine B assay; details: MCF7, 48 h
[35] = test system: K562; assay: Cytotoxicity against human K562 cells assessed as cell growth at 10 uM after 48 hrs by sulforhodamine B assay relative to control; details: K562, 48 h, read-out: Activity

Structure (SMILES): COc1cc(C(=O)/C=C/c2cc(-c3cc(OC)c(OC)c(OC)c3)n[nH]2)cc(OC)c1OC
- growth at 10 µM [1]: 6%
- growth at 100 µM [2]: -83%
- growth at 0.1 µM [3]: 101%
- growth at 0.01 µM [4]: 105%
- growth at 100 µM [5]: -58%
- growth at 1 µM [6]: 59%
- growth at 100 µM [7]: -98%
- LC50 [8]: 5.77 µM
- TGI [8]: 2.93 µM
- growth at 1 µM [9]: 85%
- growth at 0.01 µM [10]: 90%
- LC50 [11]: 5.57 µM
- TGI [11]: 3.01 µM
- growth at 100 µM [12]: -95%
- growth at 0.01 µM [13]: 102%
- growth at 10 µM [14]: -85%
- growth at 0.01 µM [15]: 93%
- LC50 [16]: 5.99 µM
- TGI [16]: 2.97 µM
- growth at 100 µM [17]: -98%
- growth at 0.1 µM [18]: 90%
- growth at 0.01 µM [19]: 111%
- growth at 100 µM [20]: 2%
- growth at 1 µM [21]: 90%
- growth at 0.1 µM [22]: 105%
- LC50 [23]: 5.86 µM
- TGI [23]: 2.57 µM
- growth at 1 µM [24]: 89%
- growth at 10 µM [25]: 5%
- growth at 10 µM [26]: -89%
- growth at 1 µM [27]: 96%
- growth at 10 µM [28]: -38%
- LC50 [29]: 7.36 µM
- TGI [29]: 3.29 µM
- growth at 0.1 µM [30]: 97%
- growth at 100 µM [31]: -24%
- LC50 [32]: > 100 µM
- TGI [32]: 5.52 µM
- growth at 100 µM [33]: -62%
- LC50 [34]: 5.22 µM
- TGI [34]: 2.07 µM

Structure (SMILES): COc1cc(-c2cc(/C=C/C(=O)c3ccc(N)cc3)[nH]n2)cc(OC)c1OC
- growth at 10 µM [1]: -15%
- growth at 100 µM [2]: -85%
- growth at 0.1 µM [3]: 102%
- growth at 0.01 µM [4]: 106%
- growth at 100 µM [5]: -49%
- growth at 1 µM [6]: 50%
- growth at 100 µM [7]: -63%
- GI50 [8]: 1.41 µM
- LC50 [8]: 7.27 µM
- TGI [8]: 2.88 µM
- growth at 1 µM [9]: 91%
- growth at 0.01 µM [10]: 91%
- GI50 [11]: 1.61 µM
- LC50 [11]: 8.4 µM
- TGI [11]: 3.67 µM
- growth at 10 µM [35]: 2%
- growth at 100 µM [12]: -40%
- growth at 0.01 µM [13]: 102%
- growth at 10 µM [14]: -24%
- growth at 0.01 µM [15]: 91%
- GI50 [16]: 1.86 µM
- LC50 [16]: 13.4 µM
- TGI [16]: 4.52 µM
- growth at 100 µM [17]: -90%
- growth at 0.1 µM [18]: 85%
- growth at 0.01 µM [19]: 92%
- growth at 100 µM [20]: -21%
- growth at 1 µM [21]: 86%
- growth at 0.1 µM [22]: 93%
- GI50 [23]: 1.42 µM
- LC50 [23]: > 100 µM
- TGI [23]: 4.3 µM
- growth at 1 µM [24]: 93%
- growth at 10 µM [25]: -9%
- growth at 10 µM [26]: -20%
- growth at 1 µM [27]: 104%
- growth at 10 µM [28]: -35%
- GI50 [29]: 2.21 µM
- LC50 [29]: > 100 µM
- TGI [29]: 10.4 µM
- growth at 0.1 µM [30]: 95%
- growth at 100 µM [31]: -3%
- GI50 [32]: 1.74 µM
- LC50 [32]: > 100 µM
- TGI [32]: 10.8 µM
- growth at 100 µM [33]: -55%
- GI50 [34]: 1.5 µM
- LC50 [34]: 60.5 µM
- TGI [34]: 5.42 µM

Structure (SMILES): COc1ccc(C(=O)/C=C/c2cc(-c3cc(OC)c(OC)c(OC)c3)n[nH]2)cc1
- growth at 10 µM [1]: -15%
- growth at 100 µM [2]: -44%
- growth at 0.1 µM [3]: 91%
- growth at 0.01 µM [4]: 102%
- growth at 100 µM [5]: -19%
- growth at 1 µM [6]: 68%
- growth at 100 µM [7]: -93%
- LC50 [8]: 6.02 µM
- TGI [8]: 3.06 µM
- growth at 1 µM [9]: 87%
- growth at 0.01 µM [10]: 87%
- LC50 [11]: 6.71 µM
- TGI [11]: 3.63 µM
- growth at 10 µM [35]: -17%
- growth at 100 µM [12]: -39%
- growth at 0.01 µM [13]: 103%
- growth at 10 µM [14]: -64%
- growth at 0.01 µM [15]: 93%
- growth at 100 µM [17]: -48%
- growth at 0.1 µM [18]: 87%
- growth at 0.01 µM [19]: 97%
- growth at 100 µM [20]: -16%
- growth at 1 µM [21]: 95%
- growth at 0.1 µM [22]: 97%
- LC50 [23]: > 100 µM
- TGI [23]: 13 µM
- growth at 1 µM [24]: 93%
- growth at 10 µM [25]: 18%
- growth at 10 µM [26]: -69%
- growth at 1 µM [27]: 98%
- growth at 10 µM [28]: -41%
- growth at 0.1 µM [30]: 97%
- growth at 100 µM [31]: -6%
- LC50 [32]: > 100 µM
- TGI [32]: 4.78 µM
- growth at 100 µM [33]: -23%
- LC50 [34]: 7.61 µM
- TGI [34]: 2.96 µM

From ChEMBL document CHEMBL4138123, “Design, synthesis and biological evaluation of novel pyrazolochalcones as potential modulators of PI3K/Akt/mTOR pathway and inducers of apoptosis in breast cancer cells” (Eur J Med Chem, 2017)
